Data set [1] is described as follows: bioavailability of IP3 in pigs: blood concentration of IP3 and AUC after intravenous, intraduodenal or oral administration. The format is in vivo. As for the experimental part:
The blood samples were assayed for the content of IP3 and these measurements were used for the calculation of the reference data as 100% of the substance is introduced into the blood stream after an intravenous injection.
Another five pigs were given the N(3-dodecanoyloxy)propyltrimethyl ammonium salt of IP3 as an intraduodenal dosing. The animals were treated with Atropin® and anaesthetized with Hypnodil®/Sedaperone® whereafter a laparotomy was carried out. Blood samples were collected at the time intervals mentioned above and the concentration of IP3 was determined in each sample. By calculating the area under the curve (AUC) from a graph where the concentration versus time is shown and comparing the obtained value with a similar calculation from the data after intravenous injection of the substance the bioavailability for the specific formulation is obtained.
Blood samples were collected at the same time intervals as above and the concentration of IP3 was determined. Following a similar procedure the AUC was determined.
(§1) Blood samples were collected and the concentration of IP3 were determined.
as §1

Structures can show the parent of a compound that is named as a salt.

With `O=P(O)(O)O[C@@H]1[C@H](OP(=O)(O)O)[C@H](O)[C@@H](O)[C@H](O)[C@H]1OP(=O)(O)O` [sodium salt, pentasodium salt of D-myo-inositol-1.2.6-triphosphate], in data set [1] (pig, in vivo), the “Normalized AUC” value worked out at 3%. Moreover, in data set [1] (pig, in vivo, iv), the “Normalized AUC” value was 100%, the concentration at 0.25 h is 71 µM, the concentration at 0.5 h turned out to be 47.5 µM and the concentration at 1 h was found to be 24.9 µM. In data set [1] (pig, in vivo, iv), the concentration at 2 h came to 9.3 µM, the concentration at 4 h was determined as 3200 nM, the concentration at 8 h was 400 nM and the concentration at 24 h was 200 nM. In addition, the “conc. IP3” value in data set [1] (pig, in vivo, iv, 0 min) stood at 0 µM. The compound also came in with a concentration in data set [1] (pig, in vivo, iv, 2 h) of 9.3 µM. Moreover, in data set [1] (pig, in vivo, po), the concentration at 0.25 h was 0.2 µM, the concentration at 0.5 h came out at 0.5 µM, the concentration at 1 h was determined as 0.5 µM and the concentration at 2 h was determined as 0.2 µM. Besides, in data set [1] (pig, in vivo, po), the concentration at 4 h is 100 nM and the concentration at 6 h came out at 100 nM. The “conc. IP3” value in data set [1] (pig, in vivo, po, 0 min) came to 0 µM. In addition, the concentration in data set [1] (pig, in vivo, po, 1 h) turned out to be 0.5 µM. Also, in data set [1] (pig, in vivo, po, 480 min), the “conc. IP3” value worked out at 0 µM. In data set [1] (pig, in vivo, po, 1440 min), the “conc. IP3” value came to 0 µM.
“N(3-dodecanoyloxy)propyltrimethylammonium inositol trisphosphate”: the “conc. IP3” value in data set [1] (pig blood, oral formulation given as intraduodenal dosing, 0 hrs) came to 0 µM. Besides, the “Normalized AUC” value in data set [1] (pig, in vivo) turned out to be 46%. For the same compound, the “bioavailability of the oral formulation” value in data set [1] (pig, in vivo) is recorded as 46%. Further, the concentration is 6.3 µM in data set [1] (pig, in vivo, 0.25 h); 9.4 µM in data set [1] (pig, in vivo, 0.5 h); 10.8 µM in data set [1] (pig, in vivo, 1 h); 7.6 µM in data set [1] (pig, in vivo, 2 h); 2.2 µM in data set [1] (pig, in vivo, 4 h); 1 µM in data set [1] (pig, in vivo, 6 h). Further, the concentration was found to be 0.8 µM in data set [1] (pig, in vivo, 8 h) and 0.1 µM in data set [1] (pig, in vivo, 24 h).
On to “N-(hexyloxycarbonyl)methyl trimethyl ammonium inositol trisphosphate”, for which, in data set [1] (pig, in vivo), the “Normalized AUC” value is listed as 75%. The “bioavailability of the oral formulation” value in data set [1] (pig, in vivo) is given as 75%. Besides, the “conc. IP3” value in data set [1] (pig, in vivo, 0 min) turned out to be 0 µM. For the same compound, the concentration in data set [1] (pig, in vivo, 0.25 h) worked out at 18.2 µM; in data set [1] (pig, in vivo, 0.5 h), 29.6 µM; in data set [1] (pig, in vivo, 1 h), 20.1 µM; in data set [1] (pig, in vivo, 2 h) it was 12.2 µM; in data set [1] (pig, in vivo, 4 h) it was 4.3 µM; in data set [1] (pig, in vivo, 6 h), 1.5 µM. In data set [1] (pig, in vivo, 24 h), this compound yielded a concentration of 0.1 µM. Further, in the data set on intestinal barriers, the “toxic effects on the intestinal barriers” value was “no toxic effects on the intestinal barriers”.

The values are drawn from US5614510A, “Pharmaceutical composition with improved bioavailability of inositol phosphate” (priority 1992, dated 1997).
